Source: US20100035853A1, “METHOD FOR PREVENTING OR TREATING CISPLATIN-INDUCED NEPHROTOXICITY” (HYOGO COLLEGE OF MEDICINE, priority 2008, published 2010)

Legend:
aldosterone receptor [1] = biological target: T1, aldosterone receptor (Mus musculus, UniProt Q8VII8); assay: Effect of Eplerenone on Cisplatin-induced increase in plasma aldosterone in wild-type mice; type: in vivo; design: Wild-type male BALB/c mice (WT mice) aged 9-10 weeks-old were purchased; from tissue; host or cells: whole animal: wild-type male BALB/c mice dosed orally, with read-outs in plasma; conditions: Eplerenone 20 mg/kg orally, observation for 3 days, significant at day 1 and later
T1 sequence (Q8VII8 1-978): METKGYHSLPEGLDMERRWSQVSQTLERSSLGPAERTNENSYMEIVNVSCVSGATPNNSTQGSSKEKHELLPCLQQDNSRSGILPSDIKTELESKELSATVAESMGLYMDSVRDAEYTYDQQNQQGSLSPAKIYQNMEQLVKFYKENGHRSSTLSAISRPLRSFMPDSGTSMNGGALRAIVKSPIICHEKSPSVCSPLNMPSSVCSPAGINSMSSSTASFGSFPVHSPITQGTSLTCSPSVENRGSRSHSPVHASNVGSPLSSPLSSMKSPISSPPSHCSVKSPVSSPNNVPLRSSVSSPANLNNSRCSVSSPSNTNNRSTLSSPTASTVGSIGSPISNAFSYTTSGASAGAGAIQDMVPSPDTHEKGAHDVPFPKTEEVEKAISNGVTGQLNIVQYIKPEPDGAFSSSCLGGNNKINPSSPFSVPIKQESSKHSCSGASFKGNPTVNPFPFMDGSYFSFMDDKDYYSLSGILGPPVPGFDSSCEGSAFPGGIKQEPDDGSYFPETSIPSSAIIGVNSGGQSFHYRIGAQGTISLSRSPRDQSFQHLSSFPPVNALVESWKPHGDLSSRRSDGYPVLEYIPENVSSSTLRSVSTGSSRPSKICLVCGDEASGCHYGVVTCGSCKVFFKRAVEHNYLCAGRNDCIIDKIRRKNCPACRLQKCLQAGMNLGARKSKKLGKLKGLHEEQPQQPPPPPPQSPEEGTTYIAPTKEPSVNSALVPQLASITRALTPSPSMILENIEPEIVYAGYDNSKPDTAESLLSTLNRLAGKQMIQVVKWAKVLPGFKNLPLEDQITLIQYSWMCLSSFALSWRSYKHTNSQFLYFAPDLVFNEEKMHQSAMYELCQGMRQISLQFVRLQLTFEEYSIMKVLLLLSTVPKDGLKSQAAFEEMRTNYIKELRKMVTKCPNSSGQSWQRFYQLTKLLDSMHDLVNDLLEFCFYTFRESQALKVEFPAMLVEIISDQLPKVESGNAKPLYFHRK
Method: (§1) Open and closed columns show vehicle- and Eplerenone-treated mice, respectively. […] NS; not significant.
(§2) Blood urea nitrogen (BUN) and creatinine were enzymatically measured by HITACHI 7180 auto-analyzer. Aldosterone level was measured by radioimmuno assay. All of these assays were performed by SRL, Inc (Tokyo, Japan).

aldosterone receptor [2] = biological target: T1, aldosterone receptor
Method: as §1, §2

[3] = Serum IL-18 and other cytokines after Cisplatin treatment (ELISA); type: in vivo, mouse; conditions: wild-type BALB/c mice, Cisplatin 20 mg/kg i.p.
Method: Levels of serum IL-18 were measured using the specific ELISA kit.
IL-18 concentrations in serum were measured by ELISA purchased from Medical and Biological Laboratories (Tokyo, Japan) in accordance with the manufactures' instructions. Other cytokines such as TNF-α, IFN-γ, IL-1β, IL-10 and MIP-1α were measured respective ELISA kits purchased from R&D Systems Inc (USA).

[4] = Survival of wild-type and IL-18KO mice after Cisplatin; type: in vivo, mouse; conditions: Cisplatin 20 mg/kg i.p.; for dead mice: day 2; for survival rate: day 3
Method: Open and closed symbols show wild-type and IL-18KO mice, respectively.
(§3) As a control, mice were treated with a similar volume of saline.

[5] = Accumulation of Cisplatin in the kidney (platinum ion content of kidney homogenate); type: in vivo, mouse; conditions: wild-type vs IL-18KO mice, Cisplatin 20 mg/kg i.p.
Method: Accumulations of Cisplatin in the kidney were measured as platinum ion content in the kidney homogenate. Open and closed columns show wild-type and IL-18KO mice, respectively.

[6] = Induction of plasma aldosterone by recombinant IL-18 in wild-type mice; type: in vivo
Method: Wild-type mice were treated with various doses of IL-18 (0.2, 0.6 and 2 mg/mouse), then blood samples were collected at 5 hours after IL-18 treatment. […] NS; not significant.
as §2

[7] = Exogenous recombinant mouse IL-18 in Cisplatin-treated IL-18KO mice: plasma BUN and creatinine; type: in vivo; conditions: IL-18KO mice supplemented with rmIL-18 (2 μg/body), Cisplatin 20 mg/kg i.p.
Method: Plasma levels of BUN and creatinine were measured as shown in Materials and Methods. Open, closed and grey-colored columns show wild-type, IL-18KO and IL-18-supplemented IL-18KO mice, respectively. […] NS; not significant.
as §3, §2

[8] = wild-type mice, Eplerenone 20 mg/kg orally 30 min pre, day 1, day 2, Cisplatin 20 mg/kg i.p.

COC(=O)[C@@H]1CC2=CC(=O)CC[C@]2(C)[C@@]23O[C@@H]2C[C@@]2(C)[C@@H](CC[C@@]24CCC(=O)O4)[C@H]13 [Eplerenone]
increase in plasma aldosterone level induced by Cisplatin (aldosterone receptor [1]): completely inhibited
inhibition of increased creatinine level vs vehicle (aldosterone receptor [2]; day 1 and later after Cisplatin treatment): significant inhibition
inhibition of increased BUN level vs vehicle (aldosterone receptor [2]; day 2 and 3 after Cisplatin treatment): Significant inhibition
renal toxicity of Cisplatin (summary statement) (aldosterone receptor [2]; wild-type mice): strongly suppressed
lethality of Cisplatin (aldosterone receptor [2]; wild-type mice treated with Eplerenone (data not shown)): almost completely suppressed
elevation of plasma BUN (aldosterone receptor [2]; [8]): almost completely suppressed
elevation of plasma creatinine (aldosterone receptor [2]; [8]): almost completely suppressed

N.N.[Cl][Pt][Cl] [Cisplatin]
levels of IL-18 in the circulation ([3]; around day 3): over 1000 pg/ml
other cytokines (TNF-α, IFN-γ, IL-1β, IL-10, MIP-1α) in serum ([3]; when IL-18 was at maximal levels (data not shown)): undetectable
dead mice ([4]; IL-18KO mice): no mouse was dead
survival rate ([4]; IL-18KO mice): 92.9%
dead mice ([4]; wild-type mice): six of fourteen
survival rate ([4]; wild-type mice): 28.6%
quantity of platinum ion in the kidney ([5]; day 1): almost equivalent
rate of excretion of platinum ion from the kidney ([5]; day 2 and 3): much rapid in IL-18KO mice than in wild-type mice

B1: rmIL-18: Recombinant mouse IL-18 donated by GlaxoSmithKline Pharmaceuticals (protein, UniProt P70380 36-192, looked up)
Interleukin-18: NFGRLHCTTAVIRNINDQVLFVDKRQPVFEDMTDIDQSASEPQTRLIIYMYKDSEVRGLAVTLSVKDSKMSTLSCKNKIISFEEMDPPENIDDIQSDLIFFQKRVPGHNKMEFESSLYEGHFLACQKEDDAFKLILKKKDENGDKSVMFTLTNLHQS
renal toxicity of exogenously given IL-18 alone ([6]; wild-type mice (data not shown)): did not cause any renal toxicity
dose of IL-18 giving significant induction of plasma aldosterone ([6]; wild-type mice, 5 hours after IL-18 treatment): over 0.6 μg
plasma levels of aldosterone ([6]; wild-type mice, various doses of IL-18, 5 hours after treatment): augmented the plasma levels of aldosterone in a dose-dependent manner
plasma levels of creatinine induced by Cisplatin ([7]; day 1 to 3): significantly increased
plasma levels of BUN ([7]; day 3): increased to almost equivalent levels with wild-type mice
